We go through two molecules from patent US9062060B2, “Substituted imidazo[2,1-A]isoindoles as PDE10 inhibitors” (H. Lundbeck A/S, priority 2010, dated 2015).

The subject of data set [1] is hyperactivity in rats induced by PCP. As to conditions: cited from earlier work.
A further data set concerns catalepsy in rats. As to conditions: cited from earlier work.
In data set [2] the test system is PCP induced hyperactivity in male mice (NMRI). Kind of data set: Phencyclidine (PCP) induced hyperactivity. The format is in vivo. As to conditions: at 5 mg/kg, per os 60 min before PCP 2.3 mg/kg s.c. The protocol:
Male mice (NMRI, Charles River) weighing 20-25 g are used. Eight mice are used in each group receiving the test compound (5 mg/kg) plus PCP (2.3 mg/kg) including the parallel control groups receiving the vehicle of the test compound plus PCP or vehicle injections only. The injection volumen is 10 ml/kg. The experiment is made in normal light conditions in an undisturbed room. The test substance is injected per oss 60 min before injection of PCP, which is administered subcutaneous.
Immediately after injection of PCP the mice are placed individually in special designed test cage (20 cm×32 cm). The activity is measured by 5×8 infrared light sources and photocells spaced by 4 cm. The light beams cross the cage 1.8 cm above the bottom of the cage. Recording of a motility count requires interruption of adjacent light beams, thus avoiding counts induced by stationary movements of the mice.
Motility is recorded in 5 min intervals for a period of 1 hour. The drug effect is calculated on the total counts during the 1 hour behavioral test period in the following manner. […] The 100 percent effect of PCP is accordingly calculated to be total motility counts minus baseline. The response in groups receiving test compound is thus determined by the total motility counts minus baseline, expressed in percent of the similar result recorded in the parallel PCP control group. […]

On to `COc1ccc(Cc2nccc3cc(OC)c(OC)cc23)cc1OC` [Papaverine], for which the “Effect on hyperactivity induced by PCP” value in data set [1] was “reduced hyperactivity”. In addition, the “Effect on the cataleptic effect of the D2 receptor antagonist haloperidol” value in the data set with catalepsy in rats (combined with haloperidol) is “potentiated the cataleptic effect”. In addition, the “Catalepsy on its own” value in the data set on catalepsy in rats (papaverine alone) is on record as “did not cause catalepsy on its own”.

On to `Cc1ncc(C)n2nc(CCc3cn4c(n3)-c3ccccc3C4)nc12` [2-[-2-(5,8-Dimethyl-[1,2,4]triazolo[1,5-a]pyrazin-2-yl)-ethyl]-5H-imidazo[2,1-a]isoindole], for which the “Inhibition of PCP induced hyperactivity” value in data set [2] is 100%.
